Measurements reported in patent US20090144861A1, “Fungicides and Bioregulatory Mixtures” (BASF Aktiengesellschaft, priority 2005, published 2009).

Key:
[1] = system: Erysiphe [syn. Blumeria] graminis forma specialis. tritici; assay: Activity against mildew of wheat (Erysgt P1); assay type: in vivo, Erysiphe graminis f. sp. tritici on wheat seedlings; conditions: sprayed 24 hours before inoculation, assessed after 7 days
Description: The active compounds were prepared separately or jointly as a stock solution with 25 mg of active compound which was made up to 10 ml using a mixture of acetone and/or DMSO and the emulsifier Uniperol® EL (wetting agent having emulsifying and dispersing action based on ethoxylated alkylphenols) in a volume ratio of solvent/emulsifier of 99 to 1. The mixture was then made up to 100 ml with water. This stock solution was diluted with the solvent/emulsifier/water mixture described to the concentration of active compounds stated below.
The visually determined percentages of infected leaf areas or the measured elongation were converted into efficacies in % of the untreated control:
The efficacy (E) is calculated as follows using Abbot's formula: […]
The expected efficacies of mixtures of active compounds were determined using Colby's formula (Colby, S. R. “Calculating synergistic and antagonistic responses of herbicide combinations”, Weeds, 15, pp. 20-22, 1967) and compared with the observed efficacies.
Use Example 2—Activity against mildew of wheat caused by Erysiphe [syn. Blumeria] graminis forma specialis. tritici (Erysgt P1)
Leaves of potted wheat seedlings were sprayed to run off point with an aqueous suspension having the active compound concentrations stated below. The suspension or emulsion had been prepared as described above. 24 hours after the spray coating had dried on, the plants were dusted with spores of mildew of wheat (Erysiphe [syn. Blumeria] graminis forma specialis. tritici). The test plants were then placed in a greenhouse at temperatures between 20 and 24° C. and at 60 to 90% relative atmospheric humidity. After 7 days, the extent of the mildew development was determined visually in % infection of the entire leaf area.
The visually determined values for the percentage of infected leaf area were initially converted into a mean value and then converted into efficacies in % of the untreated control. An efficacy of 0 means the same degree of infection as in the untreated control, an efficacy of 100 means 0% infection. The expected efficacies for active compound combinations were determined using Colby's formula (Colby, S. R. “Calculating synergistic and antagonistic responses of herbicide Combinations”, Weeds, 15, pp. 20-22, 1967) and compared to the observed efficacies.

[2] = system: Puccinia recondita; assay: Curative activity against brown rust of wheat (Puccrt K1); assay type: in vivo, Puccinia recondita on wheat seedlings cultivar Kanzler; conditions: sprayed 1 day after inoculation, assessed after 7 days
Description: The active compounds were prepared separately or jointly as a stock solution with 25 mg of active compound which was made up to 10 ml using a mixture of acetone and/or DMSO and the emulsifier Uniperol® EL (wetting agent having emulsifying and dispersing action based on ethoxylated alkylphenols) in a volume ratio of solvent/emulsifier of 99 to 1. The mixture was then made up to 100 ml with water. This stock solution was diluted with the solvent/emulsifier/water mixture described to the concentration of active compounds stated below. […] The expected efficacies of mixtures of active compounds were determined using Colby's formula (Colby, S. R. “Calculating synergistic and antagonistic responses of herbicide combinations”, Weeds, 15, pp. 20-22, 1967) and compared with the observed efficacies. E=x+y−x×y/100 Use Example 1—Curative activity against brown rust of wheat caused by Puccinia recondita (Puccrt K1) Leaves of potted wheat seedlings of the cultivar “Kanzler” were inoculated with a spore suspension of brown rust (Puccinia recondita). The pots were then placed in a chamber with high atmospheric humidity (90 to 95%) at 20 to 22° C. for 24 hours. During this time, the spores germinated and the germ tubes penetrated into the leaf tissue. The next day, the infected plants were sprayed to run off point with the active compound solution described above at the active compound concentration stated below. […] The extent of the rust fungus development on the leaves was then determined. The visually determined values for the percentage of infected leaf area were initially converted into a mean value and then converted into efficacies in % of the untreated control. […] The expected efficacies for active compound combinations were determined using Colby's formula (Colby, S. R. “Calculating synergistic and antagonistic responses of herbicide Combinations”, Weeds, 15, pp. 20-22, 1967) and compared to the observed efficacies. […]

[3] = Conc. 1 mg/ml, efficacy in % of untreated control

## Fc1ccc(C2(Cn3cncn3)OC2c2ccccc2Cl)cc1 (stereo not shown) [Epoxiconazole, epoxiconazole]
[1]; Conc. 0.25 mg/ml
  Observed activity: 0%
[1]; [3]
  Observed activity: 33%
[2]; Conc. 0.25 mg/ml, efficacy in % of untreated control
  Observed activity: 11%

## CCC(=O)C1=C([O-])CC(C(=O)[O-])CC1=O.[Ca+2] (stereo not shown) [Prohexadione-Ca, prohexadione-calcium]
[1]; Conc. 0.25 mg/ml
  Observed activity: 0%
[1]; [3]
  Observed activity: 0%
[2]; Conc. 0.06 mg/ml
  Observed activity: 0%
[2]; Conc. 1 mg/ml
  Observed activity: 0%
